Assay [1] has as its target T1, ENPP1 (Homo sapiens (Human), UniProt P22413). Put plainly: cGAMP-Glo enzymatic assay (2′3′-cGAMP substrate, AMP-Glo readout). In kind it is biochemical. As to conditions: substrate 2′3′-cGAMP; 25° C. for 60 min; 50 mM Tris pH 8.8. The procedure: (§1) Example A: Enzymatic Assay
(§2) • 1. Diluted compounds in DMSO by hand for 11 points, 3 folds dilution. Then transferred 0.02 μL compounds to 384 assay plate by ECHO. • 2. Added 2 μL specified concentration of ENPP1 to 384 assay plate. Centrifuged 1000 RPM for 1 min. • 3. Added 2 μL specified concentration of ATP to the assay plate. Centrifuged 1000 RPM for 1 min. • 4. Incubated at 25° C. for 60 min. • 5. Added 4 μL AMP-Glo Reagent to the assay plates. • 6. Centrifuged 1000 RPM for 1 min, incubate at 25° C. for 1 hours. • 7. Added 8 μL Kinase Detection Reagent to the assay plates. • 8. Centrifuged 1000 RPM for 1 min, incubated at 25° C. for 1 hours. The final assay reaction mixture contained a buffer of 50 mM Tris pH 8.8, 250 mM NaCl and 0.1% BSA • 9. Read on Envision for US LUM as RLU. • 10. Analyzed the raw data using the equation (V. Data analysis). cGAMP-Glo Assay: • 1. Diluted compounds in DMSO by hand for 11 points, 3 folds dilution. Then transferred 0.02 μL compounds to 384 assay plate by ECHO. • 2. Added 2 μL specified concentration of ENPP1 to 384 assay plate, centrifuged 1000 RPM for 1 min. • 3. Added 2 μL specified concentration of 2′3′-cGAMP to the assay plate, centrifuged 1000 RPM for 1 min. • 4. Incubated at 25° C. for 60 min. • 5. Added 4 μL AMP-Glo Reagent to the assay plates. • 6. Centrifuged 1000 RPM for 1 min, incubated at 25° C. for 1 hours. • 7. Added 8 μL Kinase Detection Reagent to the assay plates. • 8. Centrifuged 1000 RPM for 1 min, incubate at 25° C. for 1 hours. The final assay reaction mixture contained a buffer of 50 mM Tris pH 8.8, 250 mM NaCl and 0.1% BSA • 9. Read on Envision for US LUM as RLU. • 10. Analyzed the raw data using the equation (V. Data analysis).

For assay [2], the target named is T1, ENPP1. The assay can be described thus: ATP-Glo enzymatic assay (ATP substrate, AMP-Glo readout). In kind it is biochemical. As to conditions: 25° C. for 60 min, 50 mM Tris pH 8.8. On the procedure:
as §1, §2

The structures appear in SMILES notation.

Here are results for 26 compounds from patent publication US20250101019A1 (Insilico Medicine IP Limited, priority 2022, published 2025).

T1 sequence (P22413 whole entry, species assumed): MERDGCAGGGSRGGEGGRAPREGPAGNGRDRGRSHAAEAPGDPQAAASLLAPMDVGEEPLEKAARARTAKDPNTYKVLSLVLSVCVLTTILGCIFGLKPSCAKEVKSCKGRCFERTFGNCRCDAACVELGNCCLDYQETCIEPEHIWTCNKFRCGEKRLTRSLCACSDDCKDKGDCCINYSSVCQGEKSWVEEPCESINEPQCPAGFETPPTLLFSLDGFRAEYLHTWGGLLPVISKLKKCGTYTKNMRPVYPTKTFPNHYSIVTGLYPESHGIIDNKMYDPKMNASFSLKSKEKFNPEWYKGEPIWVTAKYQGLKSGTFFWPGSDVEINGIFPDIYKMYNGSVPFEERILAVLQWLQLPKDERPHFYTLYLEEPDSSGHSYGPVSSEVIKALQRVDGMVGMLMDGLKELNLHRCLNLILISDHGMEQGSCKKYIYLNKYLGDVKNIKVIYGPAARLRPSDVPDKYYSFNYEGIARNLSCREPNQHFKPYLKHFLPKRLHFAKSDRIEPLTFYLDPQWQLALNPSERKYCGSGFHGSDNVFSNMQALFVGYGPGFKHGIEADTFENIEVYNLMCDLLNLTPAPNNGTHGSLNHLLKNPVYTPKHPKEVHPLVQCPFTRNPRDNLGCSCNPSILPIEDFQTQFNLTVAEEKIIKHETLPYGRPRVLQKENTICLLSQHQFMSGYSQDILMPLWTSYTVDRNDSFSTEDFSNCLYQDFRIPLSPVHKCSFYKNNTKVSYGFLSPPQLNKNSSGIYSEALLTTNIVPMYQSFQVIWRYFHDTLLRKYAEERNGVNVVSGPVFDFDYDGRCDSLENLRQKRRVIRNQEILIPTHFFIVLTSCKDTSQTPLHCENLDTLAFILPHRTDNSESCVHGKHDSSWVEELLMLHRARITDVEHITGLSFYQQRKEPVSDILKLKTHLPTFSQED

Regarding `Cc1ncc2ccn(Cc3ccc(NS(N)(=O)=O)cc3)c2c1-c1ccn(C)n1` [Example 2, N-(4-((6-methyl-7-(1-methyl-1H-pyrazol-3-yl)-1H-pyrrolo[3,2-c]pyridin-1-yl)methyl)phenyl) sulfamide], the half-maximal inhibitory concentration (IC50) at ENPP1 [1] is 100 to 1000 nM; against ENPP1 [2] it was more than 1000 nM.

Take `Cc1ncc2nc(C)n(Cc3c(F)cc(S(N)(=O)=O)cc3F)c2c1C` [Example 63, 3,5-difluoro-4-((2,6,7-trimethyl-1H-imidazo[4,5-c]pyridin-1-yl)methyl)benzenesulfonamide]: the IC50 at ENPP1 [1] and on ENPP1 [2] was less than 1 nM each time.

As for `COc1ncc2ccn(Cc3c(F)cc(S(N)(=O)=O)cc3F)c2c1-c1ccn(C)n1` [Example 7, 3,5-difluoro-4-((6-methoxy-7-(1-methyl-1H-pyrazol-3-yl)-1H-pyrrolo[3,2-c]pyridin-1-yl)methyl)benzenesulfonamide], the IC50 on ENPP1 [1] and on ENPP1 [2] was 1 to 10 nM in each case.

As for `COc1ncc2c(C)cn(Cc3ccc(S(N)(=O)=O)cc3)c2c1-c1ccccc1` [Example 10, 4-((6-methoxy-3-methyl-7-phenyl-1H-pyrrolo[3,2-c]pyridin-1-yl)methyl)benzene sulfonamide], the IC50 against ENPP1 [1] and against ENPP1 [2] was less than 1 nM throughout.

For `Cc1ncc2c(C)cn(Cc3c(F)cc(S(N)(=O)=O)cc3F)c2c1-c1ccccc1` [Example 14, 4-[(3,6-dimethyl-7-phenylpyrrolo[3,2-c]pyridin-1-yl)methyl]-3,5-difluorobenzene-1-sulfonamide], the IC50 on ENPP1 [1] and on ENPP1 [2] was less than 1 nM throughout.

As to `COc1ncc2c(C)cn(Cc3ccc(S(N)(=O)=O)cc3)c2c1-c1ccccn1` [Example 13, 4-((6-methoxy-3-methyl-7-(pyridin-2-yl)-1H-pyrrolo[3,2-c]pyridin-1-yl)methyl)benzenesulfonamide], the IC50 against ENPP1 [1] and against ENPP1 [2] was 1 to 10 nM each time.

With `Cc1ncc(-c2ccccc2)c2c1ncn2Cc1ccc(S(N)(=O)=O)cc1` [Example 30, 4-((4-methyl-7-phenyl-1H-imidazo[4,5-c]pyridin-1-yl)methyl)benzene sulfonamide], the IC50 against ENPP1 [1] and at ENPP1 [2] was less than 1 nM in each case.

Regarding `Cc1ncc2nc(C)n(Cc3c(F)cc(S(N)(=O)=O)cc3F)c2c1C1CC1` [Example 52, 4-((7-cyclopropyl-2,6-dimethyl-1H-imidazo[4,5-c]pyridin-1-yl)methyl)-3,5-difluorobenzenesulfonamide], the half-inhibitory concentration (IC50) on ENPP1 [1] and at ENPP1 [2] was less than 1 nM in each case.

For the compound `COc1ncc2nc(C)n(Cc3c(F)cc(S(N)(=O)=O)cc3F)c2c1-c1ccccc1` [Example 24, 3,5-difluoro-4-((6-methoxy-2-methyl-7-phenyl-1H-imidazo[4,5-c]pyridin-1-yl)methyl)benzenesulfonamide], the 50% inhibitory concentration (IC50) at ENPP1 [1] and against ENPP1 [2] was less than 1 nM each time.

As to `COc1ncc2c(C)cn(Cc3ccc(NS(N)(=O)=O)cc3)c2c1-c1ccn(C)n1` [Example 1, N-(4-((6-methoxy-3-methyl-7-(1-methyl-1H-pyrazol-3-yl)-1H-pyrrolo[3,2-c]pyridin-1-yl)methyl)phenyl) sulfamide], the IC50 on ENPP1 [1] was 10 to 100 nM; against ENPP1 [2] it was 100 to 1000 nM.

As for `Cc1ncc2nc(CC(F)(F)F)n(Cc3c(F)cc(S(N)(=O)=O)cc3F)c2c1-c1ccccc1` [Example 50, 3,5-difluoro-4-((6-methyl-7-phenyl-2-(2,2,2-trifluoroethyl)-1H-imidazo[4,5-c]pyridin-1-yl)methyl)benzenesulfonamide], the IC50 at ENPP1 [1] and against ENPP1 [2] was less than 1 nM each time.

Take `Cc1ncc2nc(C)n(Cc3c(F)cc(S(N)(=O)=O)cc3F)c2c1-c1cccc(F)c1` [Example 45, 3,5-difluoro-4-((7-(3-fluorophenyl)-2,6-dimethyl-1H-imidazo[4,5-c]pyridin-1-yl)methyl)benzenesulfonamide]: the half-inhibitory concentration (IC50) at ENPP1 [1] and on ENPP1 [2] was less than 1 nM each time.

As for `Cc1ncc2nc(C3CC3)n(Cc3ccc(S(N)(=O)=O)cn3)c2c1-c1ccccc1` [Example 53, 6-((2-cyclopropyl-6-methyl-7-phenyl-1H-imidazo[4,5-c]pyridin-1-yl)methyl)pyridine-3-sulfonamide], the concentration for half-maximal inhibition (IC50) against ENPP1 [1] and against ENPP1 [2] was less than 1 nM throughout.

`COc1ncc2cnn(Cc3ccc(S(N)(=O)=O)cc3)c2c1-c1ccccc1` [Example 21, 4-((6-methoxy-7-phenyl-1H-pyrazolo[4,3-c]pyridin-1-yl)methyl)benzenesulfonamide]: the values for the IC50 against ENPP1 [1] and at ENPP1 [2] were 1 to 10 nM and 10 to 100 nM, respectively.

In the case of `Cc1ncc2ncn(Cc3c(F)cc(S(N)(=O)=O)cc3F)c2c1-c1ccccc1` [Example 27, 3,5-difluoro-4-((6-methyl-7-phenyl-1H-imidazo[4,5-c]pyridin-1-yl)methyl)benzene sulfonamide], the IC50 against ENPP1 [1] and against ENPP1 [2] was less than 1 nM throughout.

Regarding `Cc1ncc2nc(C)n(Cc3ccc(S(N)(=O)=O)cc3)c2c1-c1ccccc1` [Example 31, 4-((2,6-dimethyl-7-phenyl-1H-imidazo[4,5-c]pyridin-1-yl)methyl)benzene sulfonamide], the 50% inhibitory concentration (IC50) against ENPP1 [1] and on ENPP1 [2] was less than 1 nM each time.

As for `Cc1ncc2nc(C)n(Cc3ncc(S(N)(=O)=O)cc3F)c2c1-c1ccccc1` [Example 68, 6-((2,6-dimethyl-7-phenyl-1H-imidazo[4,5-c]pyridin-1-yl)methyl)-5-fluoropyridine-3-sulfonamide], the IC50 against ENPP1 [1] and against ENPP1 [2] was less than 1 nM throughout.

For the compound `COc1ncc2c(c1-c1ccccc1)N(Cc1c(F)cc(S(N)(=O)=O)cc1F)C(=O)C2` [Example 57, 3,5-difluoro-4-((6-methoxy-2-oxo-7-phenyl-2,3-dihydro-1H-pyrrolo[3,2-c]pyridin-1-yl)methyl)benzenesulfonamide], the half-maximal inhibitory concentration (IC50) on ENPP1 [1] and on ENPP1 [2] was less than 1 nM each time.

As for `COc1ncc2nc(C)n(Cc3ccc(S(N)(=O)=O)cc3)c2c1-c1ccccc1` [Example 22, 4-((6-methoxy-2-methyl-7-phenyl-1H-imidazo[4,5-c]pyridin-1-yl)methyl)benzenesulfonamide], the half-maximal inhibitory concentration (IC50) at ENPP1 [1] and on ENPP1 [2] was less than 1 nM in each case.

`COc1ncc2nc(C(F)F)n(Cc3ncc(S(N)(=O)=O)cc3F)c2c1-c1ccccc1` [Example 76, 6-((2-(difluoromethyl)-6-methoxy-7-phenyl-1H-imidazo[4,5-c]pyridin-1-yl)methyl)-5-fluoropyridine-3-sulfonamide]: the IC50 against ENPP1 [1] and at ENPP1 [2] was less than 1 nM in each case.

Regarding `Cc1ncc2nc(C)n(Cc3c(F)cc(S(N)(=O)=O)cc3F)c2c1-c1ccccc1F` [Example 44, 3,5-difluoro-4-((7-(2-fluorophenyl)-2,6-dimethyl-1H-imidazo[4,5-c]pyridin-1-yl)methyl)benzenesulfonamide], the IC50 at ENPP1 [1] and against ENPP1 [2] was less than 1 nM throughout.

For the compound `[2H]C([2H])([2H])Oc1ncc2nc(C)n(Cc3ccc(S(N)(=O)=O)cc3)c2c1-c1ccccc1` [Example 84, 4-((6-(methoxy-d3)-2-methyl-7-phenyl-1H-imidazo[4,5-c]pyridin-1-yl)methyl)benzenesulfonamide], the IC50 against ENPP1 [1] and at ENPP1 [2] was less than 1 nM each time.

Consider `Cc1ncc2nc(C(F)(F)F)n(Cc3c(F)cc(S(N)(=O)=O)cc3F)c2c1-c1ccccc1` [Example 34, 3,5-difluoro-4-((6-methyl-7-phenyl-2-(trifluoromethyl)-1H-imidazo[4,5-c]pyridin-1-yl)methyl)benzenesulfonamide], for which the concentration for half-maximal inhibition (IC50) at ENPP1 [1] and against ENPP1 [2] was less than 1 nM each time.

In the case of `Cc1ncc2nc(C)n(Cc3ccc(S(N)(=O)=O)nc3)c2c1-c1ccccc1` [Example 66, 5-((2,6-dimethyl-7-phenyl-1H-imidazo[4,5-c]pyridin-1-yl)methyl)pyridine-2-sulfonamide], the IC50 against ENPP1 [1] and against ENPP1 [2] was less than 1 nM in each case.

For the compound `COc1ncc2ncn(Cc3ccc(S(N)(=O)=O)cc3)c2c1-c1ccccc1` [Example 23, 4-((6-methoxy-7-phenyl-1H-imidazo[4,5-c]pyridin-1-yl)methyl)benzenesulfonamide], the IC50 on ENPP1 [1] and against ENPP1 [2] was less than 1 nM throughout.

`COc1ncc2ccn(Cc3ccc(NS(N)(=O)=O)cc3)c2c1-c1ccn(C)n1` [Example 3, N-(4-((6-methoxy-7-(1-methyl-1H-pyrazol-3-yl)-1H-pyrrolo[3,2-c]pyridin-1-yl)methyl)phenyl) sulfamide]: the IC50 on ENPP1 [1] was 100 to 1000 nM; at ENPP1 [2], more than 1000 nM.
